Test system: DGAT
Assay: Assay for inhibitory effect on DGAT in cell (intracellular triglyceride production from [14C]acetate in HepG2 cells)
Assay type: cell-based, human
Procedure: The effect of the benzazole derivatives of Chemical Formula 1 in accordance with the present invention on DGAT was examined with HepG2 cells, hepatic cells derived from the human liver, as follows.
HepG2 cells, purchased from ATCC, were cultured in Eagle's minimum essential medium (MEM), 2 mM L-glutamine, with Earle's balanced salt solution (BSS) adjusted to contain, 1.5 g/L sodium bicarbonate, 0.1 mM non-essential amino acids and 1 mM sodium pyruvate, supplemented with 10% fetal bovine serum (FBS) and 1% antibiotics (100 U/ml penicillin and 100 µg/ml streptomycin) at 37° C. in a 5% CO2 incubator.
Intracellular DGAT activity was represented by the amount of triglycerides produced in the cultured HepG2 cells while the compounds (4, 8, 10, 22, 24, 25, 26, 39 and 31) of Chemical Formula 1 were assayed for inhibitory activity against DGAT by measuring the change in intracellular triglyceride production after the addition thereof.
Cells were plated at a density of 1×10^6 cell/ml per well into 24-well plates and incubated for 24 hours. Then, the medium was exchanged with FBS-free MEM and pre-treated with samples for 1 hour. Thereafter, 0.2 mCi of [^14C]acetate (Amersham) was added as a substrate to the cells, followed by incubation for 1 hour. The production of triglyceride was catalyzed by DGAT so that DGAT activity was determined by the amount of the triglyceride product, which could be measured by radioactivity. For use, the samples were dissolved in dimethyl sulfoxide (DMSO). In a control, triglycerides were synthesized using DMSO without any sample, with the production yield thereof given as 100.
The amount of the glyceride products synthesized was determined as follows. After completion of synthesis, the cells were suspended in PBS (phosphate-buffer-saline) to remove the substrate [^14C]acetate, whether unabsorbed into the cells or remaining unreacted, and total lipids, including triglycerides, were extracted twice for 30 min with 0.5 ml of an extraction solvent mixture (hexane:isopropanol=3:2, v:v). 1 ml of the extract was concentrated with nitrogen gas.
The total lipid residue thus formed was dissolved in an organic solvent mixture (chloroform:methanol=2:1) and loaded dropwise onto a thin layer chromatography plate (TLC; silica gel 60F254, 0.5 mm, Merck) using a mixture of 80:20:1 hexane:diethylether:acetic acid (v:v:v) as a developing solvent. After the separation of triglycerides (Rf value: 0.4) on TLC, the plate was brought into contact with an autoradiographic film for three hours, followed by image analysis (BAS-1500, Fuji Photo Film Co. Ltd.) to determine the [^14C] radioactivity of the triglycerides. The cells left after the extraction were suspended in 0.3 ml of a 0.1 N sodium hydroxide solution to measure the cellular protein concentration thereof.
The empirical values were obtained by dividing triglyceride radioactivity by protein level, with correction for experimental errors between test groups.

## O=C(NCc1ccco1)c1ccc2oc(COc3ccc(C45CC6CC(CC(C6)C4)C5)cc3)nc2c1 [Cpd. 22, 2-(4-adamantan-1-yl-phenoxymethyl)-benzoxazole-5-carboxylic acid (furan-2-ylmethyl)-amide]
10 μM
  inhibition of the biosynthesis of triglycerides: 32.2%
Final level 10 μM, DMSO control given as 100
  Production Yield of Triglyceride (%): 67.8 ± 7.2%

Reference: patent publication US8304448B2, “Method for the treatment of metabolic disorder containing benzazole derivatives as an active ingredient” (Korea Research Institute of Bioscience and Biotechnology, priority 2006, dated 2012)
